“Also recorded” adds a separate entry of the source. Read-outs that look alike come from different tables or passages of the source.
Columns and labels:
[1] = tested on: MCF-7; experiment: MTT cell viability assay, MCF-7; type: cell-based, human; conditions: Homo sapiens, MCF7, 72 h, read-out: IC50 (µM) in Cultured Cells MCF-7
From the text: (§1) Cell lines used for cytotoxicity assays included MCF-7 (human breast adenocarcinoma), A549 (human lung adenocarcinoma), K562 (human chronic myelogenous leukemia) and HEK-293 (human embryonic kidney) cells and were obtained from the Iranian Biological Resource Center, Tehran, Iran. MES-SA-DX5 multidrug resistant human uterine sarcoma, over-expressing P-gp and their parental non-resistant MES-SA cell lines were purchased from Sigma-Aldrich (St. Louis, MO, USA). All cells, except for HEK-293, were cultured in RPMI 1640 supplemented with 10% FBS and 100 units/mL penicillin-streptomycin at 37 °C in humidified air containing 5% CO2. HEK-293 cells were maintained in DMEM-F12 medium containing L-glutamine 2 mM supplemented with FBS and penicillin-streptomycin. MES-SA-DX5 cells were maintained in media containing 100 nM doxorubicin in order to ensure that only drug-resistant cells continue to grow.
(§2) Cytotoxicity of the test compounds were evaluated by MTT assay. In this method, reduction of MTT, a yellow tetrazolium salt to the purple formazan, by cellular dehydrogenase enzymes is determined as an index of cell viability. Cancer cells were seeded into 96-well plates (3–5 × 10^3 cells/well) and incubated for 24 h at 37 °C. Afterwards, four different concentrations of synthesized derivatives were added in triplicate and the cells were incubated at 37 °C for another 72 h, after which the media was replaced with MTT solution at a concentration of 0.5 mg/mL was added for MTT assay. After another 4h, formazan crystals were dissolved in 200 μL DMSO for 90 min and absorbance was measured at a wavelength of 570 nm with background correction at 650 nm using a microplate reader (model 680, Bio-Rad, Hercules, CA, USA) and IC50 for each compound was calculated with CurveExpert version 1.34 for Windows.

[2] = tested on: A-549; experiment: MTT cell viability assay, A-549; type: cell-based, human; conditions: Homo sapiens, A549, 72 h, read-out: IC50 (µM) in Cultured Cells A-549
From the text: as §1, §2

[3] = tested on: MES-SA-DX5 cells; experiment: Cell cycle analysis by propidium iodide (PI)-RNase flow cytometry; type: cell-based, human; set-up: Sub G1: unit not given here; conditions: 24 h
Protocol: The analysis of cells in different phases of cell cycle and sub-G1 was performed using propidium iodide (PI)-RNase assay by flow cytometry. MES-SA-DX5 cells were seeded in 12-well plates (1 × 10^6 cells/well) and treated with different concentrations of synthesized compounds for 24 h. The cells were then collected, washed with PBS, and fixed with 70% ethanol overnight at –20 °C. After at least 24 h, fixed cells were washed with PBS and subsequently stained with a DNA staining solution containing PI 20 μg/mL and RNase 200 μg/mL at room temperature for 30 min in the dark. Twenty thousand cells of each sample were analyzed using a BD FACSCalibur flow cytometer (BD Biosciences, USA) and the amount of the cells in sub-G1, G0/G1, S, and G2/M phases were estimated using CellQuest (Becton Dickinson, San Jose, CA, USA) software.
Therefore, it could be concluded that these compounds cause cytotoxicity in drug resistant MES-SA-DX5 cells by induction of apoptosis in these cells.
Figure 3 Effect of synthesized derivatives on cell cycle alterations in MES-SA-DX5 drug resistant cells. The cells in different phases of cell cycle were monitored using propidium iodide (PI)-RNase assay by flow cytometry. MES-SA-DX5 cells were seeded in 12-well plates (1 × 10^6 cells/well) and treated with different concentrations of synthesized compounds for 24 h. The cells were then collected, washed with PBS and fixed with 70% ethanol overnight at –20 °C. After at least 24 h, fixed cells were washed with PBS and subsequently stained with a DNA staining solution containing PI 20 μg/mL and RNase 200 μg/mL at room temperature for 30 min in the dark. Twenty thousand cells of each sample were analyzed using a FACS Calibur flow cytometer (BD Biosciences, USA). Representative histograms of cells treated with synthesized compounds are shown. An increase in sub-G1 phase cells could be observed after treatment with A1, A2, B1, and B2 compounds.

[4] = target: T1, P-gp (Homo sapiens, UniProt P08183); experiment: MDR reversal assay: flow cytometric detection of Rhodamine123 efflux/accumulation in MES-SA-DX5 cells; type: cell-based; conditions: compounds at 5, 10 and 25 µM, 5 µM Rh123
T1 construct: MES-SA-DX5 is a resistant cell line, which overexpresses P-gp as a result of constant exposure to doxorubicin; host or cells: MES-SA-DX5 human uterine sarcoma cells
T1 sequence (P08183 whole entry): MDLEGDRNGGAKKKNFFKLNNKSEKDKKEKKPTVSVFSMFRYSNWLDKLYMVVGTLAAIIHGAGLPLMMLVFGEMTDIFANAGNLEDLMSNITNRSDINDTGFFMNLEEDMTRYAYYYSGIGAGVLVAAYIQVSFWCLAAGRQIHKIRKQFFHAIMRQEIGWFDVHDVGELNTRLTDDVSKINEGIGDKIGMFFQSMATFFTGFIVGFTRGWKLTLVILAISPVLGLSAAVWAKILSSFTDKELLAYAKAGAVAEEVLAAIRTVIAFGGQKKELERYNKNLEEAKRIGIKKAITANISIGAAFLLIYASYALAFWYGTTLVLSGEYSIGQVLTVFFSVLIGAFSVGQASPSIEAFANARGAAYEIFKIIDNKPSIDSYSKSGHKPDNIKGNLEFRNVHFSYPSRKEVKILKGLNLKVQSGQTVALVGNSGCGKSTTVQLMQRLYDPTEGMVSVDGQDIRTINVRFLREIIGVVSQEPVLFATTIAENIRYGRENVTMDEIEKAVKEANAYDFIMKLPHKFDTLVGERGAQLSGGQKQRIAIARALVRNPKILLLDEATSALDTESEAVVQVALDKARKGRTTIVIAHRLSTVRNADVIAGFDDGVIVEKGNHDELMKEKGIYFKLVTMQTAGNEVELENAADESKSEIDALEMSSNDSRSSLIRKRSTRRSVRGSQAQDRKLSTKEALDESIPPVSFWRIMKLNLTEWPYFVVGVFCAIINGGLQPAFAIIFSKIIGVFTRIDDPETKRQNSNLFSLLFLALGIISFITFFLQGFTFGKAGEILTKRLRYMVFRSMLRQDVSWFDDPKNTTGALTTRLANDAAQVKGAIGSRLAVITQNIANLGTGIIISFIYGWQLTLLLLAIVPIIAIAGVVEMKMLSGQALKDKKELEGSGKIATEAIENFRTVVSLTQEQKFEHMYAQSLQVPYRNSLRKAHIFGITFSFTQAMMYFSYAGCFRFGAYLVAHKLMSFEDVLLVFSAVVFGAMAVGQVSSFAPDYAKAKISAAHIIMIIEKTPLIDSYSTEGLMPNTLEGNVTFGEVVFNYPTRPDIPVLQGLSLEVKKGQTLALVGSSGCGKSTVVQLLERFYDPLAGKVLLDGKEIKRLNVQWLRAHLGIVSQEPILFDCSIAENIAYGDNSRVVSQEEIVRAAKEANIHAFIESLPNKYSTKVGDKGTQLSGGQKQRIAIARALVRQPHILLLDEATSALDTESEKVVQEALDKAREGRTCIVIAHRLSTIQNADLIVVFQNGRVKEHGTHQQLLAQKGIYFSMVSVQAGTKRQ
Protocol: Rhodamine 123 (Rh123) is a well-known substrate of P-gp and it is readily pumped out of the cells by this ABC transporter. The amount of retained Rh123 in the cells indicates the efflux function of the target transporter. Flow cytometric analysis was used for assessment of intracellular Rh123 as previously described.
Briefly, a suspension of the multidrug resistant uterine sarcoma MES-SA-DX5 cells at a density of 5 × 10^5 cells/mL in growth medium was prepared. Four-hundred microliters (400 µL) of the synthesized compounds with final concentration of 5, 10, and 25 µM were added to 500 µL of the cell suspension. Verapamil was also tested as a positive control. After an incubation of 20 min, 50 µL of Rh123 at a final concentration of 5 µM was added and incubated for further 30 min at 37 °C. The cells were then centrifuged and washed twice with ice-cold PBS, and then resuspended in PBS and kept on ice. Rh123 accumulated in cells was then quantified by a FACSCalibur flow cytometer (Becton Dickinson, San Jose, CA, USA) with excitation and emission wavelengths of 488 and 530 nm, respectively. Geometric means of fluorescence intensity values were determined using Flowing Software (http://flowingsoftware.btk.fi/).
Accumulation of Rhodamine123 (Rh123), caused by inhibition of P-gp-mediated efflux, was determined by flow cytometry in the multidrug resistant uterine sarcoma MES-SA-DX5 cell line. Verapamil was used as a positive control. MES-SA-DX5 is a resistant cell line, which overexpresses P-gp as a result of constant exposure to doxorubicin. Alterations in the amount of the fluorescent Rh123 retained inside the MES-SA-DX5 cells can be plausibly related to the inhibition of the activity of P-gp efflux pump in the cells (Figure 1). The ratio of the geometric mean value of cells treated with synthesized compounds to the geometric mean value of the control untreated cells are show in Figure 2.
Figure 2 MDR reversal assessed by flow cytometric detection of Rhodamine123 efflux in MES-SA-DX5 cells. Cells were suspended in RPMI 1640 and treated with verapamil (Ver, positive control) or synthesized derivatives. After incubation for 20 min, 5 μM Rh123 was added, the cells were incubated for another […] at 37 °C and then centrifuged and washed twice with ice-cold PBS and resuspended in PBS. The fluorescence caused by the presence of Rh123 in cells was measured using a flow cytometer with excitation and emission wavelengths of 488 nm and 530 nm, respectively. The values represent the mean ± S.E.M. of 3–5 experiments. * The difference between treated and controlled cells are statistically significant (p ˂ 0.05).

[5] = tested on: HEK-293; experiment: MTT cell viability assay, HEK-293; type: cell-based, human; conditions: non-cancerous, read-out: IC50 (µM) in Cultured Cells HEK-293
From the text: as §1, §2

[6] = tested on: MES-SA-DX5; experiment: MTT cell viability assay, MES-SA-DX5; type: cell-based, human; conditions: Homo sapiens, MES-SA/Dx5, 72 h, multidrug resistant, P-gp overexpressing, read-out: IC50 (µM) in Cultured Cells MES-SA-DX5
From the text: as §1, §2

[7] = tested on: MES-SA; experiment: MTT cell viability assay, MES-SA; type: cell-based, human; conditions: MTT; for IC50: Homo sapiens, MES-SA, 72 h, parental non-resistant, read-out: IC50 (µM) in Cultured Cells MES-SA
From the text: as §1, §2

[8] = tested on: K562; experiment: MTT cell viability assay, K562; type: cell-based, human; conditions: Homo sapiens, K562, 72 h, read-out: IC50 (µM) in Cultured Cells K562
From the text: as §1, §2

Row | Structure (SMILES) | IC50 [1] [µM] | IC50 [2] [µM] | melting point [°C] | G0/G1 ([3]; 10 µM) | G2/M ([3]; 10 µM) | S ([3]; 10 µM) | Sub G1 ([3]; 10 µM) | G0/G1 ([3]; 25 µM) | G2/M ([3]; 25 µM) | S ([3]; 25 µM) | Sub G1 ([3]; 25 µM) | S ([3]; 100 µM) | P-gp inhibitory activity (Rh123 accumulation) [4] | IC50 ([5]; Homo sapiens, HEK293, 72 h) [µM] | IC50 [6] [µM] | IC50 [7] [µM] | IC50 [8] [µM] | G0/G1 ([3]; 100 µM) | G2/M ([3]; 100 µM) | IC50 ([5]; 72 h) [µM] | further results
1 | CC1=C(C(=O)Nc2csc(C)n2)C(c2ccc(Cl)cc2Cl)C2=C(CCCC2=O)N1 (stereo not shown) [Compound A1, 4-(2,4-Dichlorophenyl)-2-methyl-N-(2-methylthiazol-4-yl)-5-oxo-1,4,5,6,7,8-hexahydroquinoline-3-carboxamide] | 72.5 ± 11.9 | 48.8 ± 1.3 | 195 | 52.32 ± 1.8 | 25.12 ± 1.7 | 21.85 ± 1.0 | 0.61 ± 0.2 | 53.30 ± 0.9 | 25.01 ± 0.7 | 20.96 ± 1.2 | 0.71 ± 0.2 | 21.12 ± 1.6 | significantly blocked P-gp efflux; also recorded: highest P-gp inhibitory activities | 28.6 ± 4.3 | 40.1 ± 4.7 | 64.1 ± 19.4 | 15 ± 0.5 |  |  |  | 
2 | CC1=C(C(=O)Nc2csc(C)n2)C(c2ccc(Br)cc2)C2=C(CCCC2=O)N1 (stereo not shown) [Compound A2, 4-(4-Bromophenyl)-2-methyl-N-(2-methylthiazol-4-yl)-5-oxo-1,4,5,6,7,8-hexahydroquinoline-3-carboxamide] | 56.7 ± 3.6 | 87.1 ± 6.7 | 273 | 56.45 ± 1.1 | 23.45 ± 0.2 | 18.90 ± 0.2 | 1.21 ± 0.7 | 59.47 ± 3.0 | 20.23 ± 0.7 | 18.53 ± 1.7 | 1.71 ± 1.1 | 19.27 ± 0.3 | significantly blocked P-gp efflux; also recorded: highest P-gp inhibitory activities | > 50 | 31.5 ± 1.5 | > 100 | 31 ± 2.7 | 50.57 ± 2.8 | 18.37 ± 2.6 | 63.1 ± 7.4 | effect against parental non-resistant MES-SA cells [7]: did not show any effect
3 | CC1=C(C(=O)Nc2csc(C)n2)C(c2ccc(Cl)cc2)C2=C(CCCC2=O)N1 (stereo not shown) [Compound A5, 4-(4-Chlorophenyl)-2-methyl-N-(2-methylthiazol-4-yl)-5-oxo-1,4,5,6,7,8-hexahydroquinoline-3-carboxamide] | 72.9 ± 12.3 | 87.4 ± 1.5 | 253 | 56.07 ± 0.3 | 24.20 ± 1.2 | 19.03 ± 0.9 | 0.65 ± 0.2 | 58.03 ± 0.7 | 22.33 ± 0.5 | 18.90 ± 0.9 | 0.70 ± 0.3 | 18.58 ± 0.6 |  | > 50 | 40.3 ± 3 | 69.5 ± 12.5 | 31.5 ± 3.3 | 48.92 ± 1.4 | 29.32 ± 1.2 | 71.1 ± 10.1 | 
4 | Cc1nc(NC(=O)c2c(C)nc3c(c2-c2ccc(Cl)cc2)C(=O)CCC3)cs1 [Compound B5, 4-(4-Chlorophenyl)-2-methyl-N-(2-methylthiazol-4-yl)-5-oxo-5,6,7,8-tetrahydroquinoline-3-carboxamide] | 89.5 ± 3.5 | 91 ± 4.6 | 251 | 53.87 ± 0.7 | 27.27 ± 2.6 | 18.13 ± 1.9 | 0.62 ± 0.1 | 55.43 ± 1.3 | 26.07 ± 2.7 | 17.73 ± 1.3 | 0.69 ± 0.1 | 13.62 ± 0.8 |  | > 50 | 62.3 ± 5.5 | > 100 | 10.4 ± 1.5 | 57.58 ± 0.9 | 26.87 ± 0.9 | 64.2 ± 1.1 | 

— publication PMC7221826, “5-Oxo-hexahydroquinoline Derivatives and Their Tetrahydroquinoline Counterparts as Multidrug Resistance Reversal Agents” (Molecules, 2020)
